Results on 25 compounds are retold here after ChEMBL document CHEMBL3867430, “Novel 3,4-seco bile acid diamides as selective anticancer proliferation and migration agents” (Eur J Med Chem, 2016).

A short description of experiment [1]: Antiproliferative activity against human PC3M cells after 48 hrs by SRB assay. To be noted: PC-3M. The class given is functional, cell-based. On the technique in general: In SRB staining, fixed cells bind dye roughly in proportion to their protein.
Experiment [2] can be described thus: Antiproliferative activity against human HT-29 cells after 48 hrs by SRB assay. The class given is functional, cell-based. To be noted: HT-29, 48 h.
Experiment [3] in a line: Antiproliferative activity against human ES2 cells after 48 hrs by SRB assay. Type of experiment: functional, cell-based. To be noted: ES-2, 48 h.
Experiment [4] in a line: Antiproliferative activity against HAF cells after 48 hrs by SRB assay. Type of experiment: cell-based. To be noted: Homo sapiens.
Experiment [5] can be described thus: Selectivity index, ratio of IC50 for HAF cells to IC50 for human PC3M cells. The class given is functional.
The nature of experiment [6]: Selectivity index, ratio of IC50 for HAF cells to IC50 for human HT-29 cells. Type of experiment: functional.
Experiment [7] can be described thus: Selectivity index, ratio of IC50 for HAF cells to IC50 for human ES2 cells. The class given is functional.

In general, IC50 refers to the concentration needed to halve the response being measured. Read a high IC50 as a need for much substance.

For the compound `C[C@H](CCC(=O)O)[C@H]1CC[C@H]2[C@@H]3[C@H](O)C[C@@H]4C[C@H](O)CC[C@]4(C)[C@H]3CC[C@]12C` [CHENODIOL], the IC50 in experiment [1], in experiment [2] and in experiment [3] was above 80 µM throughout.
Regarding `C=C(C)C1CC[C@H]2[C@@H]3CC[C@H]([C@H](C)CCC(=O)N4CCN(C)CC4)[C@@]3(C)CC[C@@H]2[C@@]1(C)CCC(=O)N1CCN(C)CC1` (some centres undefined), the IC50 in experiment [1] worked out at 5.08 µM; in experiment [2], 1.93 µM; in experiment [3] it was 3.63 µM; in experiment [4], 15.5 µM. Further, the “Ratio IC50” value in experiment [5] was 3; in experiment [6] it was 8; in experiment [7], 4.3.
`C=C(C)C1CC[C@H]2[C@@H]3CC[C@H]([C@H](C)CCC(=O)NC(C)C)[C@@]3(C)CC[C@@H]2[C@@]1(C)CCC(=O)NC(C)C` (some centres undefined): the IC50 in experiment [1] was 7.41 µM; in experiment [2], above 80 µM; in experiment [3], above 80 µM; in experiment [4] it was above 50 µM. The “Ratio IC50” value in experiment [5] is listed as above 6.7.
Take `C#CCNC(=O)CC[C@@H](C)[C@H]1CC[C@H]2[C@@H]3CCC(C(=C)C)[C@](C)(CCC(=O)NCC#C)[C@H]3CC[C@]12C` (some centres undefined): the IC50 in experiment [1] was found to be 50.4 µM; in experiment [2], 85.5 µM; in experiment [3], 3.11 µM; in experiment [4], 61.9 µM. For the same compound, the “Ratio IC50” value in experiment [7] worked out at 20.
Turning to `C=C(C)C1CC[C@H]2[C@@H]3CC[C@H]([C@H](C)CCC(N)=O)[C@@]3(C)CC[C@@H]2[C@@]1(C)CCC(N)=O` (some centres undefined), the IC50 was found to be 39.2 µM in experiment [1], 36.7 µM in experiment [2] and 36.9 µM in experiment [3].
As to `C=C(C)C1CC[C@H]2[C@@H]3CC[C@H]([C@H](C)CCC(=O)N4CCN(C5CCCCC5)CC4)[C@@]3(C)CC[C@@H]2[C@@]1(C)CCC(=O)N1CCN(C2CCCCC2)CC1` (some centres undefined), the figures for the IC50 in experiment [1], in experiment [2] and in experiment [3] were 12 µM, 3.17 µM and 17 µM, respectively.
The like results for `C=C(C)C1CC[C@H]2[C@@H]3CC[C@H]([C@H](C)CCC(=O)N4CCCC4)[C@@]3(C)CC[C@@H]2[C@@]1(C)CCC(=O)N1CCCC1` (some centres undefined) were, in that order, 32.4 µM, 23.7 µM and 9.25 µM.
Regarding `C=C(C)C1CC[C@H]2[C@@H]3CC[C@H]([C@H](C)CCC(=O)N(CC)CC)[C@@]3(C)CC[C@@H]2[C@@]1(C)CCC(=O)N(CC)CC` (some centres undefined), the IC50 worked out at 11.1 µM in experiment [1], 6.88 µM in experiment [2], 14.2 µM in experiment [3] and 56.2 µM in experiment [4]. Moreover, the “Ratio IC50” value in experiment [5] amounted to 5.1; in experiment [6], 8.1; in experiment [7], 4.
For `C=C(C)C1CC[C@H]2[C@@H]3CC[C@H]([C@H](C)CCC(=O)N4CCN(CC)CC4)[C@@]3(C)CC[C@@H]2[C@@]1(C)CCC(=O)N1CCN(CC)CC1` (some centres undefined), the figures for the half-maximal inhibitory concentration (IC50) in experiment [1], in experiment [2] and in experiment [3] were 8.47 µM, 6.19 µM and 12.5 µM, respectively.
For `C=C(C)C1CC[C@H]2[C@@H]3CC[C@H]([C@H](C)CCC(=O)N4CCOCC4)[C@@]3(C)CC[C@@H]2[C@@]1(C)CCC(=O)N1CCOCC1` (some centres undefined), the IC50 in experiment [1] was 22.5 µM; in experiment [2], 16.6 µM; in experiment [3], 29.6 µM.
The like results for `C=C(C)C1CC[C@H]2[C@@H]3CC[C@H]([C@H](C)CCC(=O)NC4CC4)[C@@]3(C)CC[C@@H]2[C@@]1(C)CCC(=O)NC1CC1` (some centres undefined) were, in that order, 17 µM, above 80 µM and above 80 µM.
On to `C=C(C)C1CC[C@H]2[C@@H]3CC[C@H]([C@H](C)CCC(=O)NCc4ccccc4)[C@@]3(C)CC[C@@H]2[C@@]1(C)CCC(=O)NCc1ccccc1` (some centres undefined), for which the IC50 was 13.6 µM in experiment [1], 13 µM in experiment [2], above 80 µM in experiment [3] and above 50 µM in experiment [4]. Moreover, the “Ratio IC50” value in experiment [5] is above 3.7; in experiment [6] it was above 3.9.
As for `C=C(C)C1CC[C@H]2[C@@H]3CC[C@H]([C@H](C)CCC(=O)N4CCN(C(C)C)CC4)[C@@]3(C)CC[C@@H]2[C@@]1(C)CCC(=O)N1CCN(C(C)C)CC1` (some centres undefined), the IC50 in experiment [1] is 1.66 µM; in experiment [2], 9.91 µM; in experiment [3] it was 6.68 µM; in experiment [4], 27 µM. The “Ratio IC50” value in experiment [5] is reported as 16.3; in experiment [6], 2.7; in experiment [7] it was 4.
For `C=C(C)C1CC[C@H]2[C@@H]3CC[C@H]([C@H](C)CCC(=O)n4cccn4)[C@@]3(C)CC[C@@H]2[C@@]1(C)CCC(=O)n1cccn1` (some centres undefined), the IC50 in experiment [1], in experiment [2] and in experiment [3] was above 80 µM each time.
`C=C(C)C1CC[C@H]2[C@@H]3CC[C@H]([C@H](C)CCC(=O)OC)[C@@]3(C)CC[C@@H]2[C@@]1(C)CCC(=O)N1CCN(C)CC1` (some centres undefined): the values for the IC50 in experiment [1], in experiment [2] and in experiment [3] were 41.8 µM, 13.7 µM and 31.7 µM, respectively.
Take `C=C(C)C1CC[C@H]2[C@@H]3CC[C@H]([C@H](C)CCC(=O)N4CCN(c5ccccc5)CC4)[C@@]3(C)CC[C@@H]2[C@@]1(C)CCC(=O)N1CCN(c2ccccc2)CC1` (some centres undefined): the IC50 in experiment [1], in experiment [2] and in experiment [3] was above 80 µM throughout.
Turning to `C=C(C)C1CC[C@H]2[C@@H]3CC[C@H]([C@H](C)CCC(=O)Nc4ccc(F)cc4)[C@@]3(C)CC[C@@H]2[C@@]1(C)CCC(=O)Nc1ccc(F)cc1` (some centres undefined), the IC50 in experiment [1], in experiment [2] and in experiment [3] was above 80 µM throughout.
`C=C(C)C1CC[C@H]2[C@@H]3CC[C@H]([C@H](C)CCC(=O)N4CCN(c5ccccc5F)CC4)[C@@]3(C)CC[C@@H]2[C@@]1(C)CCC(=O)N1CCN(c2ccccc2F)CC1` (some centres undefined): the IC50 in experiment [1], in experiment [2] and in experiment [3] was above 80 µM each time.
In the case of `C[C@H](CCC(=O)O)[C@H]1CC[C@H]2[C@@H]3CCC(C(C)(C)O)[C@](C)(CCC(=O)O)[C@H]3CC[C@]12C` (some centres undefined), the IC50 in experiment [1], in experiment [2] and in experiment [3] was above 80 µM throughout.
`C[C@H](CCC(=O)O)[C@H]1CC[C@H]2[C@@H]3CC[C@@H]4C[C@H](O)CC[C@]4(C)[C@H]3C[C@H](O)[C@]12C` [DEOXYCHOLIC ACID]: the IC50 in experiment [1], in experiment [2] and in experiment [3] was above 80 µM throughout.
In the case of `C=C(C)C1CC[C@H]2[C@@H]3CC[C@H]([C@H](C)CCC(=O)O)[C@@]3(C)CC[C@@H]2[C@@]1(C)CCC(=O)N1CCN(C)CC1` (some centres undefined), the IC50 in experiment [1] is above 80 µM; in experiment [2] it was above 80 µM; in experiment [3] it was 53.9 µM.
For the compound `C[C@H](CCC(=O)O)[C@H]1CC[C@H]2[C@@H]3C[C@H](O)[C@@H]4C[C@H](O)CC[C@]4(C)[C@H]3CC[C@]12C` [HYODEOXYCHOLIC_ACID], the IC50 in experiment [1], in experiment [2] and in experiment [3] was above 80 µM in each case.
With `CC(C)C1CC[C@H]2[C@@H]3CC[C@H]([C@H](C)CCC(=O)N4CCN(C)CC4)[C@@]3(C)CC[C@@H]2[C@@]1(C)CCC(=O)N1CCN(C)CC1` (some centres undefined), the IC50 in experiment [1] worked out at 12.7 µM; in experiment [2] it was 13.8 µM; in experiment [3], 8.2 µM.
The like results for `C=C(C)C1CC[C@H]2[C@@H]3CC[C@H]([C@H](C)CCC(=O)O)[C@@]3(C)CC[C@@H]2[C@@]1(C)CCC(=O)O` (some centres undefined) were, in that order, above 80 µM, above 80 µM and above 80 µM.
Turning to `C=C(C)C1CC[C@H]2[C@@H]3CC[C@H]([C@H](C)CCCN4CCN(C)CC4)[C@@]3(C)CC[C@@H]2[C@@]1(C)CCCN1CCN(C)CC1` (some centres undefined), the IC50 in experiment [1], in experiment [2] and in experiment [3] was above 80 µM each time.
